≈ marks a conversion by molar mass, not a printed value.
Tests used:
[1] = test system: P. falciparum NF54 strain (sensitive to standard antimalarials); test: semiautomated microdilution assay, [3H]-hypoxanthine incorporation, NF54 strain; format: cell-based, Plasmodium falciparum; conditions: NF54 strain, 72 h incubation
Description: (§1) Various OZ compounds were tested by the semiautomated microdilution assay against intraerythrocytic forms of Plasmodium falciparum derived from asynchronous stock cultures.
(§2) Fifty percent inhibitory concentration (IC50) were estimated by Logit regression analysis.

[2] = test system: P. falciparum K1 strain (Thailand resistant to chloroquine); test: semiautomated microdilution assay, [3H]-hypoxanthine incorporation, K1 strain; format: cell-based, Plasmodium falciparum; conditions: K1 strain, 72 h incubation
Description: as §1, §2

[3] = test system: ANKA strain of P. berghei; test: single dose STI in vivo screen in infected mice; set-up: species or system Plasmodium berghei; conditions: for Activity (%) po / Survival (days) po: single 10 mg/kg po in 3% ethanol and 7% Tween 80; for Activity (%) po / Activity (%) sc / Activity (%) SSVpo: mice; for Activity (%) sc / Survival (days) sc: single 10 mg/kg sc in 3% ethanol and 7% Tween 80; for Survival (days) po / Survival (days) sc / Survival (days) SSVpo: untreated control 5.6 ± 0.3; for Activity (%) SSVpo: single po dose in standard suspending vehicle (SSV); for Survival (days) SSVpo: single po dose in SSV; for Activity (%) 3 mg/kg SSV po: single 3 mg/kg po in SSV
Description: In the single dose STI in vivo screen, Moro SPF or NMRI mice infected with the ANKA strain of P. berghei (groups of 3-5 mice) were treated on day one post-infection with trioxolanes dissolved or suspended in 3% ethanol and 7% Tween 80. […] SSV consists of 0.5% w/v CMC, 0.5% v/v benzyl alcohol, 0.4% v/v Tween 80, and 0.9% w/v sodium chloride in water. Antimalarial activity was measured by percent reduction in parasitemia on day three post-infection and survival times compared to an untreated control group. Survival to day 30 post-infection is considered to be a cure. […] Other factors influencing antimalarial activity include the stability of carbon radicals formed by β-scission subsequent to the initial electron transfer to the peroxide bond and the influence of steric effects remote from the peroxide bond on the interactions between carbon radicals and potential drug targets.

[4] = percent reduction in parasitemia day 3 post-infection

| Compound | IC50 (ng/ml) NF54 [1] | IC50 (ng/ml) K1 [2] | Activity (%) po [3, 4] | Activity (%) sc [3, 4] | Survival (days) po [3] | Survival (days) sc [3] | also measured |
| --- | --- | --- | --- | --- | --- | --- | --- |
| C1CCC2(CC1)OOC1(CCCCC1)O2 [OZ01] | >100/>100 ng/ml | >100/>100 ng/ml | 0/NA/0^1% | 0/NA/0^1% | 5.3/NA/5.3^1 days | 5.3/NA/5.3^1 days |  |
| O=C1CCC2(CC1)OOC1(CCCCC1)O2 [OZ02] | 94 ng/mL (≈ 415 nM) | > 100 ng/mL | 0/NA/0^1% | 0/NA/0^1% | 5.0/NA/5.0^1 days | 5.0/NA/5.0^1 days |  |
| FC1CCCCC12OOC1(CCCCC1)O2 (centres unmarked) [OZ06] | 22 ng/mL (≈ 95.5 nM) | 18 ng/mL (≈ 78.2 nM) |  |  | 1.0/NA/1.0^1 days | 1.0/NA/1.0^1 days |  |
| CCOC(=O)CCC1CCCCC12OOC1(CCCCC1)O2 (centres unmarked) [OZ07] | 49 ng/mL (≈ 157 nM) | 66 ng/mL (≈ 211 nM) | 0/NA/0^1% | 0/NA/0^1% | 6.0 days | 5.7 days |  |
| C1CCC2(CC1)OOC1(CCC3(CC1)OOC1(CCCCC1)O3)O2 (centres unmarked) [OZ09] | 39 ng/mL (≈ 115 nM) | 32 ng/mL (≈ 94 nM) | 0% | 81% | 5.0 days | 6.3 days |  |
| O=C(Cn1ccnc1)N1CCC2(CC1)OOC1(O2)C2CC3CC(C2)CC1C3 (centres unmarked) [OZ103] | 0.17 ng/mL (≈ 0.455 nM) |  | 86% | 87% | 7.3 days | 7.3 days | Activity (%) SSVpo [3, 4]: 63%; Survival (days) SSVpo [3]: 6.7 days |
| CN(C)C(=O)N1CCC2(CC1)OOC1(O2)C2CC3CC(C2)CC1C3 (centres unmarked) [OZ133] |  | 0.70 ng/mL (≈ 2.08 nM) | 94% | 72% | 7.0 days | 7.0 days | Activity (%) SSVpo [3, 4]: 97%; Survival (days) SSVpo [3]: 7.3 days |
| C1CCC(NC2CCC3(CC2)OOC2(O3)C3CC4CC(C3)CC2C4)CC1 (centres unmarked) [OZ162] | 0.71 ng/mL (≈ 1.96 nM) | 0.50 ng/mL (≈ 1.38 nM) |  |  |  |  |  |
| CCOC(=O)c1ccc([C@H]2CC[C@]3(CC2)OOC2(O3)C3CC4CC(C3)CC2C4)cc1 (some centres unmarked) [OZ164] |  |  | 11% | 7% |  |  | IC50 ([2]; Plasmodium falciparum, read-out: IC50 (ng/ml) K1): 59 ng/mL (≈ 143 nM); Activity (%) SSVpo [3, 4]: 0%; Survival (days) SSVpo [3]: 5.7 days |
| CC(C)N(C(=O)N1CCC2(CC1)OOC1(O2)C2CC3CC(C2)CC1C3)C(C)C (centres unmarked) [OZ194] | 6.6 ng/mL (≈ 16.8 nM) |  | 87% | 99.95% | 8.3 days | 20.3 days | Activity (%) SSVpo [3, 4]: 73%; Survival (days) SSVpo [3]: 8.0 days |
| CC(C)(C)CC(=O)N[C@H]1CC[C@]2(CC1)OOC1(O2)C2CC3CC(C2)CC1C3 (some centres unmarked) [OZ195] | 3.7 ng/mL (≈ 9.8 nM) | 2.2 ng/mL (≈ 5.83 nM) |  |  |  |  |  |
| O=C1CCC(=O)N1C[C@H]1CC[C@]2(CC1)OOC1(O2)C2CC3CC(C2)CC1C3 (some centres unmarked) [OZ197] | 2.0 ng/mL (≈ 5.33 nM) | 1.0 ng/mL (≈ 2.66 nM) |  |  |  |  |  |
| NC(=O)N1CCC2(CC1)OOC1(O2)C2CC3CC(C2)CC1C3 (centres unmarked) [OZ199] |  | 0.69 ng/mL (≈ 2.24 nM) |  |  |  |  |  |
| NCC[C@H]1CC[C@]2(CC1)OOC1(O2)C2CC3CC(C2)CC1C3 (some centres unmarked) [OZ229] | 0.23 ng/mL (≈ 0.748 nM) | 0.24 ng/mL (≈ 0.781 nM) |  |  |  |  |  |
| O=C(NC[C@H]1CC[C@]2(CC1)OO[C@]1(O2)C2CC3CC(C2)CC1C3)c1cccnc1 [OZ273] |  | 0.97 ng/mL (≈ 2.43 nM) |  |  |  |  | Activity (%) 3 mg/kg SSV po [3, 4]: 64% |
| OC1(Cc2nc3ccccc3s2)CCC2(CC1)OOC1(O2)C2CC3CC(C2)CC1C3 (centres unmarked) [OZ276] | 0.94 ng/mL (≈ 2.2 nM) |  |  |  |  |  | Activity (%) 10 mg/kg SSV po ([3]; percent reduction in parasitemia day 3 post-infection, single 10 mg/kg po in SSV): 17/ND %; Survival (days) 10 mg/kg SSV po ([3]; single 10 mg/kg po in SSV): 7.3/ND days |
| NC(=O)c1ccc(NC[C@H]2CC[C@]3(CC2)OOC2(O3)C3CC4CC(C3)CC2C4)cc1 (some centres unmarked) [OZ286] |  | 0.94 ng/mL (≈ 2.28 nM) |  |  |  |  | Activity (%) 3 mg/kg SSV po [3, 4]: 60%; Survival (days) 10 mg/kg SSV po ([3]; single 10 mg/kg po in SSV): 8.7 days |

Source: US6906205B2, “Spiro and dispiro 1,2,4-trioxolane antimalarials” (Medicines for Malaria Venture MMV, priority 2002, dated 2005)
